Measured values reported in patent US20240117431A1, “STEM-CELL BASED BIOMARKER DISCOVERY” (THE REGENTS OF THE UNIVERSITY OF CALIFORNIA, priority 2020, published 2024).

Tested on: UPRT(+)-microglia brains
Experiment: In vivo labeling of brain RNA in mice transplanted with UPRT-expressing human microglia, biotin dot blot
Conditions: IP close to 150 mg/kg, 24-48 hours, FIG. 14
Experimental: 5-vinyl-uracil (Alfa Aesar #4437903) was prepared in sterile conditions at 4 times the concentration in 100% DMSO, then diluted to 25% DMSO by adding corn oil to a final concentration of 500 mM. The mixture was heated to 37° C. for […] until homogenous. Mice are weighed before intraperitoneal injection (IP) injection to ensure close to 150 mg/kg are injected per treatment. For an (˜20 g) adult mouse typically 60-70 μl are IP injected per treatment. Mice are monitored for signs of distress. After 24-48 hours of treatment, mice were sacrificed and brains were immediately placed into 2 ml of RNAlater and left in 4° C. for 3-5 days. After removing brains from RNAlater, they were homogenized with RNAse-free 1.4 mm steel beads (Next Advance SSB14B-RNA) for 60 seconds and centrifuged at 4° C. for 5 min, maximum speed to separate the fatty layer. The bottom layer is collected, homogenized with 200 ul chloroform and centrifuged for 20 minutes, at 4° C. The aqueous layer is collected and 500 ul isopropanol added. After centrifugation for 30 minutes 4° C., the RNA pellet is washed in 70% Ethanol twice. After removing ethanol, the RNA pellet is resuspended in nuclease-free water and nanodrop to determine the concentration. From each sample, 15 μg of RNA was subjected in tetrazine-biotin ligation at 37° C., 500 RPM for 3 hours. The biotinylated RNA was purified with RNA Zymo Clean and Concentrator #5 and eluted with nuclease-free water. 2 μg of purified RNA was spotted onto a N+ Hybond membrane and UV-crosslinked at 254 nm (120,000 uJ). Membrane is blocked in blocking buffer (0.12 M NaCl, 0.016 M Na2HPO4, 0.008 M NaH2PO4, 0.17 M SDS) and followed by incubation with high sensitivity streptavidin-HRP (Fisher Scientific, Cat #: P121130) at 1:5000 dilution in blocking buffer for 5 minutes. The membrane was washed twice in a Wash A buffer (1:10 dilution of blocking buffer) and twice in Wash B buffer (Tris-saline buffer). It was then incubated for 1-5 min. in ECL Chemiluminescent Substrate (Fisher Scientific, Cat #: P132106) and imaged on a ChemiDoc MP imaging system (Bio-Rad). […]

## C=Cc1c[nH]c(=O)[nH]c1=O [compound 2, 5-Vinylpyrimidine-2,4(1H,3H)-dione]
  incorporation into brain RNA, UPRT(+)-microglia transplanted: observable signals
  incorporation into brain RNA, UPRT(−)-microglia brains: significant biotin signal was not observed
